11 compounds from PMC3210175, “8-Modified-2′-Deoxyadenosine Analogues Induce Delayed Polymerization Arrest during HIV-1 Reverse Transcription” (PLoS ONE, 2011) can be followed below.

“Also recorded” adds a separate entry of the source. Where two headings read alike, the source gives them in different places.

Data set [1] deals with HIV-1 LAI in CEM-SS cells. The data set can be described thus: HIV-1 inhibition in cell culture (RT activity in cell culture supernatants). It is filed as cell-based. To be noted: mean ± SD, four independent experiments. The procedure: (§1) We thus addressed the antiviral activity of our nucleoside analogues in cell culture. All the synthesized nucleoside analogues (2a–g, 3, 7, 8 and 9) were tested for their ability to reduce HIV-1 LAI in CEM-SS cells. Viral replication was monitored by measuring the RT activity in the cell culture supernatants, while compound's cytotoxicity on uninfected cells was assessed using an MTT assay.
(§2) The activity of the nucleoside analogues 2a–g, 3, 7, 8 and 9 on HIV-1 replication was determined by measuring the RT activity associated with virus particles released from CEM-SS cells infected with HIV-1 Lai. The 50% cytotoxic concentration (CC50) was evaluated in parallel to the 50% inhibitory concentration (IC50)[37].

A short description of data set [2]: Cytotoxicity on uninfected cells, MTT assay. It is filed as cell-based. Conditions: human, uninfected CEM-SS cells, mean ± SD, four independent experiments. The procedure:
as §1, §2

For data set [3], the target named is T1, HIV-1 RT (Human immunodeficiency virus type 1 group M subtype B, UniProt P04585, E1065Q).
T1 construct: helix αH in the thumb domain of the p66 subunit of HIV-1 RT; made in house
The data set is described as follows: (+) strand DNA synthesis assay (DCT in 31-mer DNA template, 18-mer DNA primer). Format: biochemical. To be noted: analogue in 31-mer DNA template; RT 10 or 30 nM. The source says:
(§3) Viral RNA, comprising the first 311 nucleotides of the HIV-1 genomic RNA (Mal isolate) was in vitro transcribed and purified as previously described. 18-, 19 and 31-mer DNA oligodeoxynucleotides containing the modified 2′-dA analogues respectively at 3′ end, at the penultimate position of 3′ end and at a distance of 12 nucleotides from their 5′ end were chemically synthesized and purified as described above (Figure 5). Unmodified and modified 18- and 19-mer primers were labelled at their 5′ end with [γ-^32]ATP using phage T4 polynucleotide kinase and purified on 8% denaturing polyacrylamide gels. RNase H (−) reverse transcriptase bearing the E478Q mutation that abolishes RNase H activity (RT^EQ) was expressed and purified according to a method adapted from.
(§4) Primer/template (P/T) complexes, at a final concentration of 300 nM, were formed by incubating the primer with a 3 fold excess of either 1–311 viral RNA or modified 31-mer DNA oligonucleotide in water for 2 min at 90°C, cooling on ice for 2 min and incubating for 20 min at 50°C in 100 mM NaCl.
Thirty one-mer DNA templates, containing or not a modified 2′-deoxyadenosine were hybridized to an 18-mer DNA primer (Figure 5) and subsequent DNA synthesis and analysis of the reaction products were performed as described above.

For data set [4], the target named is T1, HIV-1 RT. The data set is described as follows: (−) strand "n+6" DNA synthesis assay (ddATP instead of dATP; DCT-modified 18- or 19-mer primer on 1–311 HIV-1 MAL RNA template). It is filed as biochemical. Conditions: for Inhibition of (−) strand DNA synthesis (DCT in the primer), DCT at 3′-end 18 mer: "n+6" DNA synthesis assay, analogue incorporated at 3′ end of 18-mer DNA primer; for Delayed chain termination (accumulation of n+3 products): DCT at penultimate position of 19-mer primer, both 10 and 30 nM RT.
From the text: as §3, §4
Ten nM P/T (with the 311 vRNA as template) were pre-incubated with 10 or 30 nM of RT at 37°C for 4 min. Reactions were initiated by the addition of 50 µM of each of the four dNTPs and stopped at various times with equal amounts of buffer containing formamide. The same procedure was used for synthesis of “+6” DNA except that ddATP was substituted for dATP. Reaction products were denatured for 2 min at 90°C prior to separation on an 8% polyacrylamide denaturing gel and quantified using a Fuji FLA-5100 analyser and the Image Gauge program.

A further data set deals with CEM-SS cells. The data set is described as follows: Cytotoxicity on uninfected cells, MTT assay. Format: cell-based. To be noted: mean ± SD, four independent experiments. The procedure:
as §1, §2

The target of data set [5] is T1, HIV-1 RT. The data set can be described thus: (−) strand strong-stop DNA synthesis assay (DCT-modified 19-mer DNA primer on 1–311 HIV-1 MAL RNA template). It is filed as biochemical. Conditions: 10 nM RT, full-length product.
From the text: as §3, §4
Ten nM P/T (with the 311 vRNA as template) were pre-incubated with 10 or 30 nM of RT at 37°C for 4 min. […] Reaction products were denatured for 2 min at 90°C prior to separation on an 8% polyacrylamide denaturing gel and quantified using a Fuji FLA-5100 analyser and the Image Gauge program.

The target in data set [6] is T1, HIV-1 RT. The data set can be described thus: DNA-directed DNA synthesis with modified 19-mer primer on 41-mer DNA template (Figure S2). Format: biochemical. Conditions: 8-MeS-dAMP at penultimate position of 19-mer primer, 10 or 90 nM RT. The source says: Supplementary file pone.0027456.s002.docx: Figure S2 Comparative effect of 8-MeS-dA on (−) and (+) strand DNA synthesis. A. Templates and primers used for the study. The template is either 1–311 HIV-1 MAL RNA, for which part of the sequence is shown, or a 41-mer DNA oligonucleotide. The primer is a 19- mer DNA strictly complementary to the central part of the template. X corresponds to either dAMP or 8-MeS-dAMP inserted at the penultimate position of the primer. “n” corresponds to the position of the modified nucleotide. B. Time course of in vitro DNA synthesis using 10 nM of primer/template complexes preincubated with either 10 or 90 nM of HIV-1 RT. Polymerization was initiated by the addition of 20 µM of dTTP, dGTP and dCTP as well as 50 µM of ddATP for the RNA-directed synthesis or 20 µM of dATP, dTTP, dCTP and 50 µM of ddGTP for the DNA directed synthesis. Reactions were stopped after 15, 60 and 120 min. (+6) and (+7) refer to the 6th and 7th nucleotides to be added with respect to the position of the modified nucleotide analogue. (DOCX) Click here for additional data file.

The mark [7] stands for this setting: Human immunodeficiency virus 1, CEM-SS, read-out: EC50.

For `CN(C)c1nc2c(N)ncnc2n1[C@H]1C[C@H](O)[C@@H](CO)O1` [2a, 8-Dimethylamino-2'-deoxyadenosine], the EC50 in data set [1] (setting [7]) is greater than 100 µM. This compound also showed a CC50 in data set [2] greater than 100 µM.

For the compound `CCN(C)c1nc2c(N)ncnc2n1[C@H]1C[C@H](O)[C@@H](CO)O1` [2b, 8-Ethylmethylamino-2'-deoxyadenosine], on HIV-1 RT [3], the “Effect on primer extension pattern / enzyme pausing in (+) strand DNA synthesis” value is “enzyme pausing is obvious at positions n+1 and mainly n+2”. Further, the “Inhibition of (−) strand DNA synthesis (DCT in the primer), DCT at 3′-end 18 mer” value at HIV-1 RT [4] (10 nM RT) and on HIV-1 RT [4] (30 nM RT) was “immediate chain terminator; also recorded: termination” throughout. Besides, the “Delayed chain termination (accumulation of n+3 products)” value at HIV-1 RT [4] is “clearly induced a delayed chain termination”. In addition, in data set [1] (setting [7]), the EC50 is greater than 100 µM. The compound also yielded a CC50 in data set [2] greater than 100 µM.

As for `CCN(CC)c1nc2c(N)ncnc2n1[C@H]1C[C@H](O)[C@@H](CO)O1` [2c, 8-Diethylamino-2'-deoxyadenosine], the EC50 in data set [1] (setting [7]) is greater than 100 µM. This compound also returned a CC50 in data set [2] greater than 100 µM.

In the case of `Nc1ncnc2c1nc(N1CCCC1)n2[C@H]1C[C@H](O)[C@@H](CO)O1` [2d, 8-Pyrrolidin-2'-deoxyadenosine], the EC50 in data set [1] (setting [7]) was greater than 100 µM. Moreover, the CC50 in data set [2] was greater than 100 µM.

For the compound `Nc1ncnc2c1nc(N1CCCCC1)n2[C@H]1C[C@H](O)[C@@H](CO)O1` [2e, 8-Piperidin-2'-deoxyadenosine], in data set [1] (setting [7]), the EC50 is greater than 100 µM. Moreover, the CC50 in data set [2] is greater than 100 µM.

Take `CC(C)Nc1nc2c(N)ncnc2n1[C@H]1C[C@H](O)[C@@H](CO)O1` [2f, 8-iPropyl-amino-2'-deoxyadenosine]: the “Effect on primer extension pattern / enzyme pausing in (+) strand DNA synthesis” value on HIV-1 RT [3] is “enzyme pausing is obvious at positions n+1 and mainly n+2”. Further, on HIV-1 RT [4], the “Delayed chain termination (accumulation of n+3 products)” value was “clearly induced a delayed chain termination”. The values for the EC50 in data set [1] (setting [7]), in data set [1] (listed as 8-iPr-N-dA) and in data set [1] (read-out: EC50) were 14 µM, “moderate anti-HIV-1 activity” and 14.2 ± 1.9 µM, respectively. Further, the figures for the CC50 (in data set [2]; with CEM-SS cells) were 81 µM and 81.3 ± 6.1 µM, respectively.

Take `CC(C)CNc1nc2c(N)ncnc2n1[C@H]1C[C@H](O)[C@@H](CO)O1` [2g, 8-iButyl-amino-2'-deoxyadenosine]: the “Effect on primer extension pattern / enzyme pausing in (+) strand DNA synthesis” value on HIV-1 RT [3] is given as “does not affect this pattern”. The “Delayed chain termination (accumulation of n+3 products)” value at HIV-1 RT [4] is “did not impact”. Moreover, on HIV-1 RT [5], the “Inhibition of (−) strand DNA synthesis (DCT in the primer), DCT at penultimate position 19 mer” value is recorded as “same pattern as the unmodified primer”. In addition, in data set [1] (setting [7]), the EC50 was greater than 100 µM. The compound further registered a CC50 in data set [2] greater than 100 µM.

Take `CSc1nc2c(N)ncnc2n1[C@H]1C[C@H](O)[C@@H](CO)O1` [compound 3, 8-Methylthio-2′-deoxyadenosine]: the “Effect on primer extension pattern / enzyme pausing in (+) strand DNA synthesis” value on HIV-1 RT [3] is “enzyme pausing is obvious at positions n+1 and mainly n+2”. For the same compound, the “Delayed chain termination (accumulation of n+3 products)” value at HIV-1 RT [4] is listed as “clearly induced a delayed chain termination”. In data set [1] (setting [7]), the EC50 is greater than 100 µM. This compound gave a CC50 in data set [2] greater than 100 µM. Besides, on HIV-1 RT [6], the “Delayed chain termination with DNA rather than RNA as template” value was “did not act as a delayed chain terminator”.

Take `NC(=O)c1nc2c(N)ncnc2n1[C@H]1C[C@H](O)[C@@H](CO)O1` [compound 7, 8-Carbamoyl-2′-deoxyadenosine]: the EC50 in data set [1] (setting [7]) was greater than 100 µM. In data set [2], this compound came in with a CC50 greater than 100 µM.

Take `C=Cc1nc2c(N)ncnc2n1[C@H]1C[C@H](O)[C@@H](CO)O1` [compound 8, 8-Vinyl-2′-deoxyadenosine]: the “Effect on primer extension pattern / enzyme pausing in (+) strand DNA synthesis” value on HIV-1 RT [3] was “enzyme pausing is obvious at positions n+1 and mainly n+2”. The EC50 in data set [1] (setting [7]) was greater than 100 µM. The compound further displayed a CC50 in data set [2] greater than 100 µM.

As for `CCc1nc2c(N)ncnc2n1[C@H]1C[C@H](O)[C@@H](CO)O1` [compound 9, 8-Ethyl-2′-deoxyadenosine], the “Effect on primer extension pattern / enzyme pausing in (+) strand DNA synthesis” value at HIV-1 RT [3] is “enzyme pausing is obvious at positions n+1 and mainly n+2”. Further, the EC50 in data set [1] (setting [7]) is greater than 100 µM. In data set [2], this compound gave a CC50 greater than 100 µM.

By EC50 is commonly meant the concentration that produces a half-maximal response. Broadly, the CC50 is the concentration giving 50% cytotoxicity.
